BindingDB's records for doi:10.1021/jm00102a020 (Merck Research Laboratories, 1993)

target: Integrin alpha-IIb/beta-3 (Homo sapiens, UniProt P08514+P05106); test: ChEBML_90196
From the text: In vitro inhibition of ADP-mediated human gel filtered platelet aggregation.

Chain of Integrin alpha-IIb/beta-3 (P05106 27-788 limits assumed): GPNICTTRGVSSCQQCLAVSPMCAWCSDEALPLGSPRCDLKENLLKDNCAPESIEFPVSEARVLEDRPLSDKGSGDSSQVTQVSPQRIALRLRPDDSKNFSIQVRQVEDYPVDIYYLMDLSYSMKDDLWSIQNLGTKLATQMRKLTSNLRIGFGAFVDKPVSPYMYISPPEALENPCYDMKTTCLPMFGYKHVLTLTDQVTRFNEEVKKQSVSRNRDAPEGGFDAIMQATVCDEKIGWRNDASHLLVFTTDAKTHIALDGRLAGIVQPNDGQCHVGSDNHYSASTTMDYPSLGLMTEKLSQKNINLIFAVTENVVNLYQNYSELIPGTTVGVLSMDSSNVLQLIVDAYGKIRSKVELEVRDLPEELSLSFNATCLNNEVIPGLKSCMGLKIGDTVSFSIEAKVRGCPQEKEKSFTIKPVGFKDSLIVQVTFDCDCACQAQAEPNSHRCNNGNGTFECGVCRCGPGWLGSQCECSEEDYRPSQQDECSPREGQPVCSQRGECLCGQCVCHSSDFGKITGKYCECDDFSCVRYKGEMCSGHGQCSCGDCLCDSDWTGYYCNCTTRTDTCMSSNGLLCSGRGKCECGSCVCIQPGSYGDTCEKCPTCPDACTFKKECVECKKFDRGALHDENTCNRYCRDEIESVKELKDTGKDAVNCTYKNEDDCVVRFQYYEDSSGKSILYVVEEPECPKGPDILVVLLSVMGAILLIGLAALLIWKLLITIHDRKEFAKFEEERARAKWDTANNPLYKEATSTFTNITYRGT
Chain of Integrin alpha-IIb/beta-3 (P08514 32-887 limits assumed): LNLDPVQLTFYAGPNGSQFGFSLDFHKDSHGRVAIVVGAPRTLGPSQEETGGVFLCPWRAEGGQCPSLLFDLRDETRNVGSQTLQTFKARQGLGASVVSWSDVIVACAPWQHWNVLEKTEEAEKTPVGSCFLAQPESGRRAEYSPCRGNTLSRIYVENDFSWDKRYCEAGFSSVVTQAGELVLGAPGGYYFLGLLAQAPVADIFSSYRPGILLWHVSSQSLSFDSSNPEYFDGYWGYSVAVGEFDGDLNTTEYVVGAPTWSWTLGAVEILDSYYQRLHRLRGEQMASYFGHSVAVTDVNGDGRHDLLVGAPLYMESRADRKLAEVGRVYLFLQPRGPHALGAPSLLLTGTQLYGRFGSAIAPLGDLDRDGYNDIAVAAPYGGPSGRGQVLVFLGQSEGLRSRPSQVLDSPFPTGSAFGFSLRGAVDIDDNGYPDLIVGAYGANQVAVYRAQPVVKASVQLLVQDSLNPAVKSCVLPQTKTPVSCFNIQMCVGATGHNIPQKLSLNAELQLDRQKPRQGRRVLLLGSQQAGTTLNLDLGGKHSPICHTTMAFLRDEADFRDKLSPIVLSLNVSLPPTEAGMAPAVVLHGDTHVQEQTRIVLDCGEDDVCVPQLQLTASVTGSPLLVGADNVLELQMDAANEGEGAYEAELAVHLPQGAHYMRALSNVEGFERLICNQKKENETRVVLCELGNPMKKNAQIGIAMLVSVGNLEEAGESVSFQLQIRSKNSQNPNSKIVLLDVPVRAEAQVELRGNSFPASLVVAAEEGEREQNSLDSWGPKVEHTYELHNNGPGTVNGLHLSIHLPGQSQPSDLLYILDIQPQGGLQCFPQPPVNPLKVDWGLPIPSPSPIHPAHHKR
Chain of Integrin alpha-IIb/beta-3 (P08514 891-1039 limits assumed): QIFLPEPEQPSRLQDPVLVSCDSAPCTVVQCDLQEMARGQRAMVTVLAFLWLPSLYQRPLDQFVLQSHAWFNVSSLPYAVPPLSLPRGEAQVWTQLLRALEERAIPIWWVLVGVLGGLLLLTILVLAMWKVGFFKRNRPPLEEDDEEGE

Row | Compound | IC50
1 | O=C(N[C@@H](Cc1ccc(OCCCc2ccccc2)cc1)C(=O)O)OCc1ccccc1 | > 1000 µM
2 | CC(C)(C)NCC(O)COc1ccc(C[C@H](NC(=O)OCc2ccccc2)C(=O)O)cc1 (some centres not stated) | 27 µM
3 | CC(C)(C)NCCCOc1ccc(C[C@H](NC(=O)OCc2ccccc2)C(=O)O)cc1 [(S)-2-Benzyloxycarbonylamino-3-[4-(3-tert-butylamino-propoxy)-phenyl]-propionic acid] | 22 µM

More lines, now with the values ahead:

Row | IC50 | Compound
4 | > 100 µM | NCCCCCCOc1ccc(CCC(=O)O)cc1
5 | 3.8 µM | CCCCCC(=O)N[C@@H](Cc1ccc(OCCCCCCN)cc1)C(=O)O
6 | 2 µM | NCCCCCCOc1ccc(C[C@H](NS(=O)(=O)Cc2ccccc2)C(=O)O)cc1
7 | 40 µM | NCCCCCCCCOc1ccc(C[C@H](NC(=O)OCc2ccccc2)C(=O)O)cc1 [3-[4-(8-Amino-octyloxy)-phenyl]-2-benzyloxycarbonylamino-propionic acid]
